{"source": "paper PMC6271626", "about": "“Design, Synthesis, and Biological Evaluation of Artemisinin-Indoloquinoline Hybrids as Potent Antiproliferative Agents” (Molecules, 2014)", "key": {"[1]": {"system": "human leukemia MV4-11 cell line", "conditions": "MV4-11 human leukemia cell line; cited from earlier work"}, "[2]": {"system": "human leukemia MV4-11 cell line", "test": "Antiproliferative assay in vitro, MTT, MV4-11", "type": "cell-based", "conditions": "mean ± SD", "protocol": "(§1) MV4-11 cells were cultured in the RPMI 1640 medium (IIET, Wroclaw) supplemented with 2 mM L-glutamine and 1.0 mM sodium pyruvate, 10% fetal bovine serum (all from Sigma Aldrich, Germany). HCT116 and A549 cells were cultured in the RPMI1640 + OptiMEM (50:50) medium (IIET, Wroclaw) supplemented with 2 mM L-glutamine and 5% fetal bovine serum (all from Sigma Aldrich, Germany), BALB/3T3 cells were cultured in Dulbecco medium (IIET, Wroclaw) supplemented with 2 mM L-glutamine and 1.0 mM sodium pyruvate, 10% fetal bovine serum (all from Sigma Aldrich, Germany). All culture medium was supplemented with 100 units/mL penicillin and […] streptomycin (both from Polfa, Tarchomin S.A., Warsaw, Poland). All cell lines were grown at 37 °C with 5% CO2 humidified atmosphere.\n(§2) Test solutions of the compounds tested (1 mg/mL) were prepared by dissolving the substances in 100 μL of DMSO completed with 900 μL of tissue culture medium. Afterward, the tested compounds were diluted in culture medium to reach the final concentrations of 10, 1, 0.1, 0.01 μg/mL. Twenty four hours prior to the addition of the tested compounds, the cells were plated in 96-well plates (Sarstedt, Germany) at a density of 1 × 10^4 or 0.5× 10^4 (HCT116) cells per well. The assay was performed after 72 h of exposure to varying concentrations of the tested agents. The in vitro cytotoxic effect of all agents was examined using the MTT (for MV4-11 cell line) or SRB (for A549, HCT116 and BALB/3T3 cell lines) assay. The results were calculated as an IC50 (inhibitory concentration 50)–the dose of tested agent that inhibits proliferation of 50% of the cell population. Each compound in each concentration was tested in triplicate in a single experiment, which was repeated 3–5 times."}, "[3]": {"system": "normal mice fibroblast BALB/3T3", "test": "Cytotoxicity against normal fibroblasts, SRB, BALB/3T3", "type": "cell-based, mouse", "conditions": "mean ± SD", "protocol": "as §1, §2"}, "[4]": {"system": "A549, human non-small-cell lung adenocarcinoma cell line", "test": "Antiproliferative assay in vitro, SRB, A549", "type": "cell-based", "conditions": "mean ± SD", "protocol": "as §1, §2"}, "[5]": {"system": "HCT116, human colon cancer cell line", "test": "Antiproliferative assay in vitro, SRB, HCT116", "type": "cell-based", "conditions": "mean ± SD", "protocol": "as §1, §2"}, "[6]": {"system": "A549, human non-small-cell lung adenocarcinoma cell line", "design": "method as in PMID 21207937", "conditions": "cited from earlier work"}, "[7]": {"system": "HCT116, human colon cancer cell line", "design": "method as in PMID 21207937", "conditions": "cited from earlier work"}, "[8]": {"conditions": "Homo sapiens, MV4-11, 72 h exposure"}, "[9]": {"conditions": "Mus musculus, BALB/3T3, 72 h exposure"}, "[10]": {"conditions": "Homo sapiens, A549, 72 h exposure"}, "[11]": {"conditions": "Homo sapiens, HCT-116, 72 h exposure"}}, "note": "“And” between values parts separate entries of the source, which are not always exact repeats. Equal entries are not always repeated. Structures can show the parent of a compound that is named as a salt. Where two headings read alike, the source gives them in different places."}
{"smiles": "Cn1c2nc3ccccc3c-2c(NCCCN)c2ccccc21", "note": "[Compound 4a, N^1-(5-methyl-5H-indolo[2,3-b]quinolin-11-yl)propane-1,3-diamine]", "values": [{"measurement": "IC50", "setting": "[1]", "result": "66 ± 23", "unit": "nM"}]}
{"smiles": "COC(=O)c1ccc2c(c1)c(NCCCNC(=O)CCC(=O)OC1OC3OC4(C)CCC5C(C)CCC(C1C)C35OO4)c1c3ccccc3nc-1n2C", "note": "(centres unmarked) [Compound 7d, Artesunate-[methyl 11-(3-aminopropylamino)-5-methyl-5H-indolo[2,3-b]quinoline-2-carboxylate] hybride]", "values": [{"measurement": "IC50", "setting": "[2]; 72 h exposure", "result": "148 ± 15", "unit": "nM"}, {"measurement": "IC50", "setting": "[3]; 72 h exposure", "result": "4950 ± 220", "unit": "nM"}, {"measurement": "IC50", "setting": "[4]; 72 h exposure", "result": "3660 ± 535", "unit": "nM"}, {"measurement": "IC50", "setting": "[5]; 72 h exposure", "result": "1760 ± 329", "unit": "nM"}]}
{"smiles": "N.N.[Cl][Pt][Cl]", "note": "[cisplatin, reference compound]", "values": [{"measurement": "IC50", "setting": "[2]; 72 h exposure", "result": "2820 ± 450", "unit": "nM"}, {"measurement": "IC50", "setting": "[3]; 72 h exposure", "result": "9500 ± 500", "unit": "nM"}, {"measurement": "IC50", "setting": "[4]; 72 h exposure", "result": "8960 ± 3330", "unit": "nM"}, {"measurement": "IC50", "setting": "[5]; 72 h exposure", "result": "9460 ± 1300", "unit": "nM"}]}
{"smiles": "COc1cccc2c1C(=O)c1c(O)c3c(c(O)c1C2=O)C[C@@](O)(C(=O)CO)C[C@@H]3O[C@H]1C[C@H](N)[C@H](O)[C@H](C)O1", "note": "[doxorubicin HCl, reference compound]", "values": [{"measurement": "IC50", "setting": "[2]; [8]", "result": "6 ± 2", "unit": "nM"}]}
{"smiles": "COC(=O)c1ccc2c(c1)c(NCC(C)(C)CNC(=O)CCC(=O)OC1OC3OC4(C)CCC5C(C)CCC(C1C)C35OO4)c1c3ccccc3nc-1n2C", "note": "(centres unmarked) [Compound 7e, Artesunate-[methyl 11-(3-amino-2,2-dimethylpropylamino)-5-methyl-5H-indolo[2,3-b]quinoline-2-carboxylate] hybrid]", "values": [{"measurement": "IC50", "setting": "[2]; 72 h exposure", "result": "75 ± 1", "unit": "nM"}, {"measurement": "IC50", "setting": "[3]; 72 h exposure", "result": "5940 ± 1160", "unit": "nM"}, {"measurement": "IC50", "setting": "[4]; 72 h exposure", "result": "5060 ± 911", "unit": "nM"}, {"measurement": "IC50", "setting": "[5]; 72 h exposure", "result": "2210 ± 687", "unit": "nM"}]}
{"smiles": "CC1CCC2C(C)C(OC(=O)CCC(=O)NCC(C)(C)CNc3c4c5ccccc5nc-4n(C)c4ccc(Br)cc34)OC3OC4(C)CCC1C32OO4", "note": "(centres unmarked) [Compound 7c, Artesunate-[N^1-(2-bromo-5-methyl-5H-indolo[2,3-b]quinolin-11-yl)-2,2-dimethylpropane-1,3-diamine] hybrid]", "values": [{"measurement": "IC50", "setting": "[2]; 72 h exposure", "result": "242 ± 31", "unit": "nM"}]}
{"smiles": "CC1CCC2C(C)C(OC(=O)CCC(=O)NCC(C)(C)CNc3c4c5ccccc5nc-4n(C)c4ccc(Cl)cc34)OC3OC4(C)CCC1C32OO4", "note": "(centres unmarked) [Compound 7b, Artesunate-[N^1-(2-chloro-5-methyl-5H-indolo[2,3-b]quinolin-11-yl)-2,2-dimethjylpropane-1,3-diamine] hybrid]", "values": [{"measurement": "IC50", "setting": "[2]; 72 h exposure", "result": "~72 nM and 72 nM"}, {"measurement": "IC50", "setting": "[3]; 72 h exposure", "result": "6420 ± 996", "unit": "nM"}, {"measurement": "IC50", "setting": "[4]; 72 h exposure", "result": "4560 ± 2090", "unit": "nM"}, {"measurement": "IC50", "setting": "[5]; 72 h exposure", "result": "893 ± 397", "unit": "nM"}]}
{"smiles": "CC1CCC2C(C)C(OC(=O)CCC(=O)NCCCNc3c4ccccc4nc4c3[nH]c3ccccc34)OC3OC4(C)CCC1C32OO4", "note": "(centres unmarked) [Compound 8, Artesunate-[11-(3-aminopropylamino)-10H-indolo[3,2-b]quinoline] hybrid]", "values": [{"measurement": "IC50", "setting": "[2]; [8]", "result": "286 ± 127", "unit": "nM"}, {"measurement": "IC50", "setting": "[3]; [9]", "result": "2720 ± 731", "unit": "nM"}, {"measurement": "IC50", "setting": "[4]; [10]", "result": "1330 ± 586", "unit": "nM"}, {"measurement": "IC50", "setting": "[5]; [11]", "result": "557 ± 85", "unit": "nM"}]}
{"smiles": "NCCCNc1nc2ccccc2c2[nH]c3ccccc3c12", "note": "[Compound 6, 6-(3-aminopropylamino)-11H-indolo[3,2-c]quinoline]", "values": [{"measurement": "IC50", "setting": "[2]; [8]", "result": "124 ± 10", "unit": "nM"}, {"measurement": "IC50", "setting": "[3]; [9]", "result": "1050 ± 127", "unit": "nM"}, {"measurement": "IC50", "setting": "[4]; [10]", "result": "172 ± 52", "unit": "nM"}, {"measurement": "IC50", "setting": "[5]; [11]", "result": "258 ± 107", "unit": "nM"}]}
{"smiles": "CC1CCC2C(C)C(OC(=O)CCC(=O)NCCCNc3c4c5ccccc5nc-4n(C)c4ccccc34)OC3OC4(C)CCC1C32OO4", "note": "(centres unmarked) [Compound 7a, Artesunate-[N^1-(5-methyl-5H-indolo[2,3-b]quinolin-11-yl)propane-1,3-diamine] hybrid]", "values": [{"measurement": "IC50", "setting": "[2]; 72 h exposure", "result": "286 ± 79", "unit": "nM"}]}
{"smiles": "C[C@H]1[C@@H](O)O[C@@H]2O[C@@]3(C)CC[C@H]4[C@H](C)CC[C@@H]1[C@@]24OO3", "note": "[DHA (2), dihydroartemisinin]", "values": [{"measurement": "IC50", "setting": "[6]", "result": "> 20000", "unit": "nM"}, {"measurement": "IC50", "setting": "[7]", "result": "1340 ± 1060", "unit": "nM"}]}
{"smiles": "COC(=O)c1ccc2c(c1)c(NCCCN)c1c3ccccc3nc-1n2C", "note": "[Compound 4d, methyl 11-(3-aminopropylamino)-5-methyl-5H-indolo[2,3-b]quinoline-2-carboxylate]", "values": [{"measurement": "IC50", "setting": "[3]; [9]", "result": "768 ± 155", "unit": "nM"}, {"measurement": "IC50", "setting": "[4]; [10]", "result": "649 ± 80", "unit": "nM"}, {"measurement": "IC50", "setting": "[5]; [11]", "result": "130 ± 14", "unit": "nM"}, {"measurement": "IC50", "setting": "[1]", "result": "86 ± 20", "unit": "nM"}]}
{"smiles": "CC1CCC2C(C)C(OC(=O)CCC(=O)NCCCNc3nc4ccccc4c4[nH]c5ccccc5c34)OC3OC4(C)CCC1C32OO4", "note": "(centres unmarked) [Compound 9]", "values": [{"measurement": "IC50", "setting": "[2]; [8]", "result": "128 ± 36", "unit": "nM"}, {"measurement": "IC50", "setting": "[3]; [9]", "result": "4980 ± 471", "unit": "nM"}, {"measurement": "IC50", "setting": "[4]; [10]", "result": "1810 ± 516", "unit": "nM"}, {"measurement": "IC50", "setting": "[5]; [11]", "result": "855 ± 235", "unit": "nM"}]}
